≈ marks a conversion by molar mass, not a printed value.
Key:
HIV [1] = details: cited from earlier work
HIV [2] = experiment: human protein adjusted IC90; assay type: cell-based; details: Human immunodeficiency virus 1; reference line in FIG. 1 and FIG. 2

| Structure (SMILES) | reduced HIV viral load by a mean of (HIV [1]; patients with trough levels >=20 μg/mL and without key baseline Gag polymorphisms at Q369, V370 or T371) | HIV viral load reduction versus patients without Gag polymorphisms (HIV [1]; users with Gag polymorphisms at Q369, V370 or T371) | IC90 (HIV [2]) |
| --- | --- | --- | --- |
| C=C(C)[C@@H]1CC[C@]2(C(=O)O)CC[C@]3(C)[C@H](CC[C@@H]4[C@@]5(C)CC[C@H](OC(=O)CC(C)(C)C(=O)O)C(C)(C)[C@@H]5CC[C@]43C)[C@@H]12 [Bevirimat] | 1.3 log10/mL | significantly lower load reductions |  |
| CC(C)C1=C2[C@H]3CC[C@@H]4[C@@]5(C)CC[C@H](OC(=O)CC(C)(C)C(=O)O)C(C)(C)[C@@H]5CC[C@@]4(C)[C@]3(C)CC[C@@]2([C@@H](O)CN(CCN(C)C)Cc2ccc(Cl)cc2)CC1=O [first compound, 4-(((3aR,5aR,5bR,7aR,9S,11aR,11bR,13aS)-3a-((R)-2-((4-Chlorobenzyl)(2-(dimethylamino)ethyl)amino)-1-hydroxyethyl)-1-isopropyl-5a,5b,8,8,11a-pentamethyl-2-oxo-3,3a,4,5,5a,5b, 6,7,7a,8,9,10,11,11a,11b,12,13,13a-octadecahydro-2H-cyclopenta[a]chrysen-9-yl)oxy)-2,2-dimethyl-4-oxobutanoic acid] |  |  | 4.31 ng/mL (≈ 5.32 nM) |

Reference: patent US10092523B2, “Long acting pharmaceutical compositions” (priority 2014, dated 2018)
